# *1 amine or outer side, *2 acyl side, *3 side chain or, on linkers, in order; H or OH if unused. Where a SMILES comes first, the peptide text is derived from it. Bridges are numbered along the chain shown (N, C = ends). Roman numbers before positions name the chains, in order. [ ]: non-standard residue; d: D form. Actinocin(9to1) = Cc1c2oc3c(C)ccc(C(=O)[*:1])c3nc-2c(C(=O)[*:2])c(N)c1=O; NMeV = CN[C@H](C(=O)O)C(C)C; Sar = CNCC(=O)O
# Legend:
# hepadnavirus polymerase [1] = molecular target: T1, hepadnavirus polymerase (Hepatitis B virus genotype D subtype ayw, UniProt P03156); test: In vitro polymerase activity of isolated core particles in the presence of Actinomycin D; type: biochemical; details: 100 μg/ml Actinomycin D; (−) strand synthesis from an RNA template
# T1 construct: made in house; host or cells: Spodoptera frugiperda SF9 cells infected with recombinant baculoviruses (pVL1393-derived)
# T1 sequence (P03156 whole entry): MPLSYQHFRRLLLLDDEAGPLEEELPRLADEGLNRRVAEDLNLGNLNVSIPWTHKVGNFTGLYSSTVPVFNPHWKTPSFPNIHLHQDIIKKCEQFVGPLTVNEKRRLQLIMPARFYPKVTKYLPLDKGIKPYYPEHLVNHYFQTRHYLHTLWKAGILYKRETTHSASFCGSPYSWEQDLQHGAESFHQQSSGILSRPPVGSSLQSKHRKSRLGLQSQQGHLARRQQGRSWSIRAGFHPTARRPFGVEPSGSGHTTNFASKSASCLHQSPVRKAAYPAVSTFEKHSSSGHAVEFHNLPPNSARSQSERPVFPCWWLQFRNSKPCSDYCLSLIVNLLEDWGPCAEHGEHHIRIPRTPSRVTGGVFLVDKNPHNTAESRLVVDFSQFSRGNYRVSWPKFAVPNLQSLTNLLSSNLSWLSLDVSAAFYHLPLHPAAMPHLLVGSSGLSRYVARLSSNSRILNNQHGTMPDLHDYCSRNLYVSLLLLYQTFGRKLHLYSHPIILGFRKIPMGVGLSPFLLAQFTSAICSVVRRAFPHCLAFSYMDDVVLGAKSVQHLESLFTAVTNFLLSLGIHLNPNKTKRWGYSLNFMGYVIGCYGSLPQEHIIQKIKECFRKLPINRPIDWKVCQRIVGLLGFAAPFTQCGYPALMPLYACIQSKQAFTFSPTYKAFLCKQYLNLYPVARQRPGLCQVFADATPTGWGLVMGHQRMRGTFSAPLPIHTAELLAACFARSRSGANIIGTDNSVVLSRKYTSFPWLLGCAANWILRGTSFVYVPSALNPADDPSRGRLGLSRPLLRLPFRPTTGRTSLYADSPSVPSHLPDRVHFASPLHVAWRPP
# Text: This observation further confirms that the primary activity observed is the (−) strand synthesis from an RNA template. Site-directed mutagenesis has been used to change an tyr-met-asp-asp (SEQ ID NO:16) sequence in the HBV polymerase active site to a tyr-met-his-ala (SEQ ID NO:17) sequence, a mutation that has been previously shown to destroy polymerase activity. See, for example, Seifer and Strandring, Intervirology 38:295-303,1995; Wang & Seeger, Cell 71:663-670, 1992. For an analogous active site mutation, see Radziwill et al., J. Virol. 64:613-620,1990. When this mutant is used in the methods of the invention to create core particles, the core particles lack polymerase activity. This observation confirms that it is indeed hepadnavirus polymerase activity that is being observed in the core particles of the invention.
# A 96 well plate was prepared with wells containing either various dilutions of test sample containing a prospective bioactive agent, a positive control, a known hepadnavirus polymerase inhibitor, or an EDTA sample for which no polymerase activity should be detected and which thus indicates, after the assay processing, non-specific, background radioactivity. The plate has eight rows of wells, A through H, and twelve columns of wells, 1 through 12. […]
# The background radioactivity determined from column 12, wells E through H, was subtracted from all of the remaining values. […]
# hepadnavirus polymerase [2] = molecular target: T1, hepadnavirus polymerase; test: Endogenous polymerase assay (EPA) with size analysis of endogenously labeled DNA from nucleocapsids, actinomycin D comparative sample; type: biochemical; details: 80-100 μg per ml actinomycin D in comparative sample
# Description: The beads were resuspended in 50 μl EPA reaction mix (50 mM Tris-HCl, pH 7.4, 75 mM NH4Cl, 1 mM EDTA, 20 mM MgCl2, 0.1 mM β-mercaptoethanol, 0.5% Tween 20, 50 μM dNTP mix (Ultrapure, Pharmacia, Uppsala, Sweden)), and the resulting suspension was incubated at 37° C. for 6 h.
# The beads were washed once with 800 μl IP wash buffer (50 mM Tris-HCl, pH 7.4, 150 mM NaCl, 5 mM EDTA, 1% Triton-X 100, 0.02% SDS) and resuspended in 50 μl TNE (10 mM Tris-HCl, pH 7.4, 150 mM NaCl, 1 mM EDTA) containing 1% SDS and 10 mM dithiothreitol. The beads were then heated to boiling temperature (100 C) for 7 min to disintegrate the capsids, and the supernates isolated by centrifugation and transferred to microfuge cups, with the supemates from […] parallel reactions combined in each microfuge cup. […]
# The synthesis that is actinomycin D sensitive is measured with the above-described EPA assay where 80-100 μg per ml of actinomycin D are added in a comparative sample.
# SF9 cells were harvested 90 hours postinfection with recombinant viruses (a) BV-ECPE, (b) BV-EC+BV-PDE, (c) BV-EC and (d) BV-PDE. […] Immunoprecipitated core particles were subjected to EPA as described above, and deproteinized nucleic acids isolated from the assay samples were analyzed on a 1% agarose gel, and visualized by autoradiography. […]
smiles,measurement,setting,value
"Cc1c2oc3c(C)ccc(C(=O)N[C@@H]4C(=O)N[C@H](C(C)C)C(=O)N5CCC[C@H]5C(=O)N(C)CC(=O)N(C)[C@@H](C(C)C)C(=O)O[C@@H]4C)c3nc-2c(C(=O)N[C@@H]2C(=O)N[C@H](C(C)C)C(=O)N3CCC[C@H]3C(=O)N(C)CC(=O)N(C)[C@@H](C(C)C)C(=O)O[C@@H]2C)c(N)c1=O [Actinomycin D] (I: T[dV]P[Sar][NMeV] / II: T[dV]P[Sar][NMeV]; ester I:1-I:C, II:1-II:C; linker I:N-II:N via Actinocin(9to1))",polymerase activity exhibited by core particles in the presence of Actinomycin D,hepadnavirus polymerase [1],active
same,"actinomycin D sensitivity of EPA product nucleic acids, trans cores",hepadnavirus polymerase [2]; BV-EC+BV-PDE (trans) cores from SF9 cells,not the trans products
same,"actinomycin D sensitivity of EPA product nucleic acids, cis cores",hepadnavirus polymerase [2]; BV-ECPE (cis) cores from SF9 cells,mostly actinomycin D sensitive

# — patent US6518014B1, “Hepadnavirus cores” (priority 1996, dated 2003)
